Measured values reported in patent publication US20030045548A1, “Polymorphic forms of 6-[4-(1-cyclohexyl-1H-tetrazol-5-YL)butoxy]-3,4-dihydro-2(1H)-quinolinone” (priority 2001, published 2003).

Assays:
[1] = aqueous solubility of cilostazol polymorphic forms; assay type: physicochemical
[2] = bioavailability of cilostazol Form A; assay type: in vivo; details: Form A as prepared by the procedures of the '479 patent
[3] = stability of the polymorphic form; assay type: physicochemical; details: statement in summary, no conditions given

SMILES: O=C1CCc2cc(OCCCCc3nnnn3C3CCCCC3)ccc2N1 [Form A, 6-[4-(1-cyclohexyl-1H-tetrazol-5-yl)butoxy]-3,4-dihydro-2(1H)-quinolinone]
- aqueous solubility ([1]; Form A as prepared by the procedures of the '479 patent): low aqueous solubility
- bioavailability [2]: low bioavailability

SMILES: O=C1CCc2cc(OCCCCc3nnnn3C3CCCCC3)ccc2N1 [Form B, 6-[4-(1-cyclohexyl-1H-tetrazol-5-yl)butoxy]-3,4-dihydro-2(1H)-quinolinone]
- solubility relative to Form A ([1]; inferred from lower DSC melting point (FIG. 8), no solubility measurement): more soluble than Form A
- stability of the form [3]: stable
